Active and inactive are the calls of the source. The calls are words filed in the database; no cut-off is given here.
What was measured:
UACC-62 = assay: Cytotoxicity against human UACC62 cells assessed as growth inhibition at 10 uM after 24 hrs by SRB assay; assay type: functional; conditions: UACC-62, 24 h, read-out: GI
RXF 393 = assay: Cytotoxicity against human RXF393 cells assessed as growth inhibition at 10 uM after 24 hrs by SRB assay; assay type: functional; conditions: RXF 393, 24 h, read-out: GI
HCT-116 = assay: Cytotoxicity against human HCT116 cells assessed as growth inhibition at 10 uM after 24 hrs by SRB assay; assay type: functional; conditions: HCT-116, 24 h, read-out: GI
SR = assay: Cytotoxicity against human SR cells assessed as growth inhibition at 10 uM after 24 hrs by SRB assay; assay type: functional; conditions: read-out: GI
TK-10 = assay: Cytotoxicity against human TK10 cells assessed as growth inhibition at 10 uM after 24 hrs by SRB assay; assay type: functional
ACHN = assay: Cytotoxicity against human ACHN cells assessed as growth inhibition at 10 uM after 24 hrs by SRB assay; assay type: functional; conditions: read-out: GI
CCRF-CEM = assay: Cytotoxicity against human CCRF-CEM cells assessed as growth inhibition at 10 uM after 24 hrs by SRB assay; assay type: functional; conditions: read-out: GI
SF-295 = assay: Cytotoxicity against human SF295 cells assessed as growth inhibition at 10 uM after 24 hrs by SRB assay; assay type: functional
UACC-257 = assay: Cytotoxicity against human UACC257 cells assessed as growth inhibition at 10 uM after 24 hrs by SRB assay; assay type: functional
MDA-MB-231 = assay: Cytotoxicity against human MDA-MB-231 cells assessed as growth inhibition at 10 uM after 24 hrs by SRB assay; assay type: functional; conditions: MDA-MB-231, 24 h, read-out: GI
RPMI-8226 = assay: Cytotoxicity against human RPMI8226 cells assessed as growth inhibition at 10 uM after 24 hrs by SRB assay; assay type: functional; conditions: RPMI-8226, 24 h, read-out: GI
T47D = assay: Cytotoxicity against human T47D cells assessed as growth inhibition at 10 uM after 24 hrs by SRB assay; assay type: functional
Ovis aries = species: Ovis aries; assay: Inhibition of sheep tubulin polymerization at 100 uM by fluorescence assay
Malme-3M = assay: Cytotoxicity against human MALME-3M cells assessed as growth inhibition at 10 uM after 24 hrs by SRB assay; assay type: functional; conditions: read-out: GI
U-251 = assay: Cytotoxicity against human U251 cells assessed as growth inhibition at 10 uM after 24 hrs by SRB assay; assay type: functional
NCI-H226 = assay: Cytotoxicity against human NCI-H226 cells assessed as growth inhibition at 10 uM after 24 hrs by SRB assay; assay type: functional
[1] = Cytotoxicity against human Hs578T cells assessed as growth inhibition at 10 uM after 24 hrs by SRB assay; assay type: functional; conditions: Hs-578T, read-out: GI
HOP-62 = assay: Cytotoxicity against human HOP62 cells assessed as growth inhibition at 10 uM after 24 hrs by SRB assay; assay type: functional; conditions: HOP-62, 24 h, read-out: GI
SF-539 = assay: Cytotoxicity against human SF539 cells assessed as growth inhibition at 10 uM after 24 hrs by SRB assay; assay type: functional; conditions: SF-539, 24 h, read-out: GI
NCI-H460 = assay: Cytotoxicity against human NCI-H460 cells assessed as growth inhibition at 10 uM after 24 hrs by SRB assay; assay type: functional
HOP-92 = assay: Cytotoxicity against human HOP92 cells assessed as growth inhibition at 10 uM after 24 hrs by SRB assay; assay type: functional
786-0 = assay: Cytotoxicity against human 786-0 cells assessed as growth inhibition at 10 uM after 24 hrs by SRB assay; assay type: functional
SK-MEL-5 = assay: Cytotoxicity against human SK-MEL-5 cells assessed as growth inhibition at 10 uM after 24 hrs by SRB assay; assay type: functional; conditions: SK-MEL-5, 24 h, read-out: GI
PC-3 = assay: Cytotoxicity against human PC3 cells assessed as growth inhibition at 10 uM after 24 hrs by SRB assay; assay type: functional; conditions: PC-3, 24 h, read-out: GI
SK-MEL-28 = assay: Cytotoxicity against human SK-MEL-28 cells assessed as growth inhibition at 10 uM after 24 hrs by SRB assay; assay type: functional; conditions: SK-MEL-28, 24 h, read-out: GI
HL-60(TB) = assay: Cytotoxicity against human HL-60(TB) cells assessed as growth inhibition at 10 uM after 24 hrs by SRB assay; assay type: functional; conditions: HL-60, 24 h, read-out: GI
A549 = assay: Cytotoxicity against human A549 cells assessed as growth inhibition at 10 uM after 24 hrs by SRB assay; assay type: functional; conditions: A549, 24 h, read-out: GI
MDA-MB-435 = assay: Cytotoxicity against human MDA-MB-435 cells assessed as growth inhibition at 10 uM after 24 hrs by SRB assay; assay type: functional; conditions: MDA-MB-435, 24 h, read-out: GI
NCI/ADR-RES = assay: Cytotoxicity against human NCI/ADR-RES cells assessed as growth inhibition at 10 uM after 24 hrs by SRB assay; assay type: functional; conditions: read-out: GI
NCI-H522 = assay: Cytotoxicity against human NCI-H522 cells assessed as growth inhibition at 10 uM after 24 hrs by SRB assay; assay type: functional; conditions: NCI-H522, 24 h, read-out: GI
SNB-75 = assay: Cytotoxicity against human SNB75 cells assessed as growth inhibition at 10 uM after 24 hrs by SRB assay; assay type: functional; conditions: SNB-75, 24 h, read-out: GI
OVCAR-3 = assay: Cytotoxicity against human OVCAR3 cells assessed as growth inhibition at 10 uM after 24 hrs by SRB assay; assay type: functional; conditions: OVCAR-3, 24 h, read-out: GI
SK-OV-3 = assay: Cytotoxicity against human SKOV3 cells assessed as growth inhibition at 10 uM after 24 hrs by SRB assay; assay type: functional; conditions: SK-OV-3, 24 h, read-out: GI
K562 = assay: Cytotoxicity against human K562 cells assessed as growth inhibition at 10 uM after 24 hrs by SRB assay; assay type: functional; conditions: K562, 24 h, read-out: GI
MCF7 = assay: Cytotoxicity against human MCF7 cells assessed as growth inhibition at 10 uM after 24 hrs by SRB assay; assay type: functional; conditions: MCF7, 24 h, read-out: GI
CAKI-1 = assay: Cytotoxicity against human CAKI-1 cells assessed as growth inhibition at 10 uM after 24 hrs by SRB assay; assay type: functional; conditions: CAKI-1, 24 h, read-out: GI
OVCAR-4 = assay: Cytotoxicity against human OVCAR4 cells assessed as growth inhibition at 10 uM after 24 hrs by SRB assay; assay type: functional
OVCAR-8 = assay: Cytotoxicity against human OVCAR8 cells assessed as growth inhibition at 10 uM after 24 hrs by SRB assay; assay type: functional; conditions: OVCAR-8, 24 h, read-out: GI

## COc1nc(OC)nc(-c2cc(C(=O)c3cc(OC)c(OC)c(OC)c3)n3c(C)cccc23)n1
UACC-62
  inhibition of growth at 10 µM: 30%
RXF 393
  inhibition of growth at 10 µM: 31%
HCT-116
  inhibition of growth at 10 µM: 15%
SR
  inhibition of growth at 10 µM: 67%
TK-10
  growth inhibition (GI): inactive
ACHN
  inhibition of growth at 10 µM: 30%
CCRF-CEM
  inhibition of growth at 10 µM: 10%
SF-295; SF-295, 24 h, read-out: GI
  inhibition of growth at 10 µM: 15%
UACC-257
  growth inhibition (GI): inactive
MDA-MB-231
  inhibition of growth at 10 µM: 17%
RPMI-8226
  inhibition of growth at 10 µM: 10%
T47D
  growth inhibition (GI): inactive
Ovis aries
  inhibition: inactive
Malme-3M
  inhibition of growth at 10 µM: 37%
U-251
  growth inhibition (GI): inactive
NCI-H226
  growth inhibition (GI): inactive
[1]
  inhibition of growth at 10 µM: 17%
HOP-62
  inhibition of growth at 10 µM: 34%
SF-539
  inhibition of growth at 10 µM: 14%
NCI-H460
  growth inhibition (GI): inactive
HOP-92
  growth inhibition (GI): inactive
786-0
  growth inhibition (GI): inactive
SK-MEL-5
  inhibition of growth at 10 µM: 41%
PC-3
  inhibition of growth at 10 µM: 19%
SK-MEL-28
  inhibition of growth at 10 µM: 14%
HL-60(TB)
  inhibition of growth at 10 µM: 33%
A549
  inhibition of growth at 10 µM: 17%
MDA-MB-435
  inhibition of growth at 10 µM: 86%
NCI/ADR-RES
  inhibition of growth at 10 µM: 15%
NCI-H522
  inhibition of growth at 10 µM: 56%
SNB-75
  inhibition of growth at 10 µM: 67%
OVCAR-3
  inhibition of growth at 10 µM: 19%
SK-OV-3
  inhibition of growth at 10 µM: 18%
K562
  inhibition of growth at 10 µM: 45%
MCF7
  inhibition of growth at 10 µM: 55%
CAKI-1
  inhibition of growth at 10 µM: 11%
OVCAR-4
  growth inhibition (GI): inactive
OVCAR-8
  inhibition of growth at 10 µM: 12%

## COc1nc(OC)nc(-c2cc(C(=O)c3cc(OC)c(OC)c(OC)c3)n3ccc(C)cc23)n1
UACC-62
  inhibition of growth at 10 µM: 63%
RXF 393
  inhibition of growth at 10 µM: 41%
HCT-116
  inhibition of growth at 10 µM: 27%
SR
  inhibition of growth at 10 µM: 74%
TK-10
  growth inhibition (GI): inactive
ACHN
  inhibition of growth at 10 µM: 47%
CCRF-CEM
  inhibition of growth at 10 µM: 26%
SF-295
  growth inhibition (GI): inactive
UACC-257; UACC-257, 24 h, read-out: GI
  inhibition of growth at 10 µM: 38%
MDA-MB-231
  inhibition of growth at 10 µM: 25%
RPMI-8226
  inhibition of growth at 10 µM: 30%
Ovis aries
  inhibition: inactive
Malme-3M
  inhibition of growth at 10 µM: 61%
U-251; U-251, 24 h, read-out: GI
  inhibition of growth at 10 µM: 15%
NCI-H226
  growth inhibition (GI): inactive
[1]
  inhibition of growth at 10 µM: 35%
HOP-62
  inhibition of growth at 10 µM: 28%
SF-539
  inhibition of growth at 10 µM: 29%
NCI-H460; NCI-H460, 24 h, read-out: GI
  inhibition of growth at 10 µM: 16%
HOP-92
  growth inhibition (GI): inactive
786-0; 786-0, 24 h, read-out: GI
  inhibition of growth at 10 µM: 20%
SK-MEL-5
  inhibition of growth at 10 µM: 63%
PC-3
  inhibition of growth at 10 µM: 36%
SK-MEL-28
  inhibition of growth at 10 µM: 40%
HL-60(TB)
  inhibition of growth at 10 µM: 60%
A549
  inhibition of growth at 10 µM: 36%
MDA-MB-435
  inhibition of growth at 10 µM: 100%
NCI/ADR-RES
  inhibition of growth at 10 µM: 24%
NCI-H522
  inhibition of growth at 10 µM: 43%
SNB-75
  inhibition of growth at 10 µM: 58%
OVCAR-3
  inhibition of growth at 10 µM: 75%
SK-OV-3
  inhibition of growth at 10 µM: 29%
K562
  inhibition of growth at 10 µM: 56%
MCF7
  inhibition of growth at 10 µM: 73%
CAKI-1
  inhibition of growth at 10 µM: 25%
OVCAR-4; OVCAR-4, 24 h, read-out: GI
  inhibition of growth at 10 µM: 21%
OVCAR-8
  inhibition of growth at 10 µM: 15%

## O=C(c1ccc(Br)cc1)c1cc(-c2nc(=O)[nH]c(=O)[nH]2)c2ccccn12
Ovis aries
  inhibition: inactive

## Cn1c(-c2cc(C(=O)c3ccc(Br)cc3)n3ccccc23)nc(=O)[nH]c1=O
Ovis aries
  inhibition: inactive

## COc1nc(-c2cc(C(=O)c3ccc(Br)cc3)n3ccccc23)[nH]c(=O)n1
Ovis aries
  inhibition: inactive
